Results as given in EP4806898A1, “HETEROARYL DERIVATIVE COMPOUND AND USE THEREOF” (Voronoi Inc., priority 2023, dated 2025).

How the values were obtained:
UWB1.289 cells = assay: Cell proliferation inhibitory activity in BRCA1/2-mutant or HRD-positive cells (Cell Titer-Glo); assay type: cell-based; settings: UWB1289; UWB1.289 cells, 144 hours after compound treatment, Cell Titer-Glo, 1.5 nM to 10 µM; read-out: GI50 UWB1.289 BRCA1 mut
Outline: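 UWB1.289 cells (1,000/well) in 50% MEBM/50% RPMI1640 exposed to […], final 1.5 nM to 10 µM, for 144 h at 37 °C. Viable cells measured by CellTiter-Glo luminescence; GI50 calculated.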

recombinant USP1 protein = molecular target: T1, recombinant USP1 protein (Homo sapiens, UniProt O94782, DEL125-138/DEL229-408/DEL608-737); assay: Binding affinity to recombinant USP1 protein by differential scanning fluorimetry; settings: compound 100 µM; 0.03 mg/mL USP1 (Δ1-66, Δ125-138, Δ229-408, Δ608-737); Tm with compound minus Tm with DMSO; read-out: ΔTm (°C)
T1 sequence (O94782 with tags, fused parts or gaps DEL125-138/DEL229-408/DEL608-737): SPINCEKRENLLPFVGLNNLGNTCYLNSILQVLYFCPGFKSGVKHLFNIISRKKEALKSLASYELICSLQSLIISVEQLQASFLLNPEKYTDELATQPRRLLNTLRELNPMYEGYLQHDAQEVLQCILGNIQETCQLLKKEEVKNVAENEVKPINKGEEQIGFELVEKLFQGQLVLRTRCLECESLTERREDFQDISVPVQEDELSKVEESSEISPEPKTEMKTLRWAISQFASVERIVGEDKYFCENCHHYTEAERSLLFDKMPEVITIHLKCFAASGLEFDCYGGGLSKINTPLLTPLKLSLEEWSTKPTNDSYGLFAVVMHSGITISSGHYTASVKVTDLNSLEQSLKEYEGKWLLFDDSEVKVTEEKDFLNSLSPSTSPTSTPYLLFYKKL
Outline: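 USP1 (Δ1-66, Δ125-138, Δ229-408, Δ608-737) at 0.03 mg/mL with dye in 50 mM Tris-HCl pH 8.0, 150 mM NaCl, 2% glycerol, 1 mM DTT; compounds at 100 µM final. Tm read on real-time PCR instrument; ΔTm = Tm with compound minus Tm with DMSO.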

Q: With `CCn1cc(C(F)(F)F)nc1-c1ccc(Cn2c(C(=O)NC)cc3cnc(-c4c(OC)ncnc4C4CC4)nc32)cc1` [Example 68, 2-(4-cyclopropyl-6-methoxypyrimidin-5-yl)-7-(4-(1-ethyl-4-(trifluoromethyl)-1H-imidazol-2-yl)benzyl)-N-methyl-7H-pyrrolo[2,3-d]pyrimidine-6-carboxamide] as the molecule, how does the GI50 (UWB1.289 cells) read?
A: Its GI50 is less than 0.1 µM.

Q: And the ΔTm at 100 µM (recombinant USP1 protein)?
A: Its ΔTm at 100 µM is greater than 5 °C.

Q: `COc1ncnc(C2CC2)c1-c1ncc2cc(C(=O)NC3CCN(C)CC3)n(Cc3ccc(-c4nc(C(F)(F)F)cn4C(C)C)cc3)c2n1` [Example 69, 2-(4-cyclopropyl-6-methoxypyrimidin-5-yl)-7-(4-(1-isopropyl-4-(trifluoromethyl)-1H-imidazol-2-yl)benzyl)-N-(1-methylpiperidin-4-yl)-7H-pyrrolo[2,3-d]pyrimidine-6-carboxamide] was tested. Which GI50 (UWB1.289 cells) did it give?
A: The GI50 was less than 0.1 µM.

Q: What about the ΔTm at 100 µM (recombinant USP1 protein) of the same molecule?
A: The ΔTm at 100 µM was greater than 5 °C.

Q: For `COc1ncnc(C2CC2)c1-c1ncc2cc(C(=O)N(C)CC(F)(F)F)n(Cc3ccc(-c4nc(C(F)(F)F)cn4C(C)C)cc3)c2n1` [Example 70, 2-(4-cyclopropyl-6-methoxypyrimidin-5-yl)-7-(4-(1-isopropyl-4-(trifluoromethyl)-1H-imidazol-2-yl)benzyl)-N-methyl-N-(2,2,2-trifluoroethyl)-7H-pyrrolo[2,3-d]pyrimidine-6-carboxamide], which GI50 (UWB1.289 cells) is on record?
A: The GI50 was 0.1 to 0.5 µM.

Q: What about the ΔTm at 100 µM (recombinant USP1 protein) of the same molecule?
A: The ΔTm at 100 µM was greater than 5 °C.

Q: Which GI50 (UWB1.289 cells) does the source give for `COCC1CN(C(=O)c2cc3cnc(-c4c(OC)ncnc4C4CC4)nc3n2Cc2ccc(-c3nc(C(F)(F)F)cn3C(C)C)cc2)C1` [Example 71, (2-(4-cyclopropyl-6-methoxypyrimid in-5-yl)-7-(4-(1-isopropyl-4-(trifluoromethyl)-1H-imidazol-2-yl)benzyl)-7H-pyrrolo[2,3-d]pyrimidin-6-yl) (3-(methoxymethyl)azetidin-1-yl)methanone] here?
A: The GI50 was less than 0.1 µM.

Q: What about the ΔTm at 100 µM (recombinant USP1 protein) of the same molecule?
A: The ΔTm at 100 µM was greater than 5 °C.

Q: How did the GI50 (UWB1.289 cells) turn out when `COc1ncnc(C2CC2)c1-c1ncc2cc(C(=O)N3CCC(F)(F)C3)n(Cc3ccc(-c4nc(C(F)(F)F)cn4C(C)C)cc3)c2n1` [Example 73, (2-(4-cyclopropyl-6-methoxypyrimid in-5-yl)-7-(4-(1-isopropyl-4-(trifluoromethyl)-1H-imidazol-2-yl)benzyl)-7H-pyrrolo[2,3-d]pyrimidin-6-yl)(3,3-difluoropyrrolidin-1-yl)methanone] was run?
A: Its GI50 is 0.1 to 0.5 µM.

Q: What about the ΔTm at 100 µM (recombinant USP1 protein) of the same molecule?
A: Its ΔTm at 100 µM is greater than 5 °C.

Q: `COc1ncnc(C2CC2)c1-c1ncc2cc(C(=O)N3CC(CS(C)(=O)=O)C3)n(Cc3ccc(-c4nc(C(F)(F)F)cn4C(C)C)cc3)c2n1` [Example 75, (2-(4-cyclopropyl-6-methoxypyrimid in-5-yl)-7-(4-(1-isopropyl-4-(trifluoromethyl)-1H-imidazol-2-yl)benzyl)-7H-pyrrolo[2,3-d]pyrimidin-6-yl) (3-((methylsulfonyl)methyl)azetidin-1-yl)methanone] was tested. Which GI50 (UWB1.289 cells) did it give?
A: Its GI50 is 0.1 to 0.5 µM.

Q: What about the ΔTm at 100 µM (recombinant USP1 protein) of the same molecule?
A: The ΔTm at 100 µM was greater than 5 °C.

Q: Which GI50 (UWB1.289 cells) does the source give for `COc1ncnc(C2CC2)c1-c1ncc2cc(C(=O)NC3CCS(=O)(=O)C3)n(Cc3ccc(-c4nc(C(F)(F)F)cn4C(C)C)cc3)c2n1` (stereo not drawn) [Example 78, 2-(4-cyclopropyl-6-methoxypyrimidin-5-yl)-N-(1,1-dioxidotetrahydrothiophen-3-yl)-7-(4-(1-isopropyl-4-(trifluoromethyl)-1H-imidazol-2-yl)benzyl)-7H-pyrrolo[2,3-d]pyrimidine-6-carboxamide] here?
A: The GI50 was 0.1 to 0.5 µM.

Q: What about the ΔTm at 100 µM (recombinant USP1 protein) of the same molecule?
A: The ΔTm at 100 µM was greater than 5 °C.

Q: `COc1ncnc(C2CC2)c1-c1ncc2cc(C(=O)NC3(C)CC3)n(Cc3ccc(-c4nc(C(F)(F)F)cn4C(C)C)cc3)c2n1` [Example 79, 2-(4-cyclopropyl-6-methoxypyrimidin-5-yl)-7-(4-(1-isopropyl-4-(trifluoromethyl)-1H-imidazol-2-yl)benzyl)-N-(1-methylcyclopropyl)-7H-pyrrolo[2,3-d]pyrimidine-6-carboxamide] was tested. Which GI50 (UWB1.289 cells) did it give?
A: The GI50 was 0.1 to 0.5 µM.

Q: And the ΔTm at 100 µM (recombinant USP1 protein)?
A: The ΔTm at 100 µM was greater than 5 °C.

Q: What does the source list for `COc1ncnc(C2CC2)c1-c1ncc2cc(C(=O)NCC3CCC(F)(F)C3)n(Cc3ccc(-c4nc(C(F)(F)F)cn4C(C)C)cc3)c2n1` (stereo not drawn) [Example 80, 2-(4-cyclopropyl-6-methoxypyrimidin-5-yl)-N-((3,3-difluorocyclopentyl)methyl)-7-(4-(1-isopropyl-4-(trifluoromethyl)-1H-imidazol-2-yl)benzyl)-7H-pyrrolo[2,3-d]pyrimidine-6-carboxamide]?
A: GI50 (UWB1.289 cells): 0.1 to 0.5 µM; ΔTm at 100 µM (recombinant USP1 protein): > 5 °C

Q: Which GI50 (UWB1.289 cells) does the source give for `CC[C@H](C)NC(=O)c1cc2cnc(-c3c(OC)ncnc3C3CC3)nc2n1Cc1ccc(-c2nc(C(F)(F)F)cn2C(C)C)cc1` [Example 82, (S)-N-(sec-butyl)-2-(4-cyclopropyl-6-methoxypyrimidin-5-yl)-7-(4-(1-isopropyl-4-(trifluoromethyl)-1H-imidazol-2-yl)benzyl)-7H-pyrrolo[2,3-d]pyrimidine-6-carboxamide] here?
A: The GI50 was less than 0.1 µM.

Q: What about the ΔTm at 100 µM (recombinant USP1 protein) of the same molecule?
A: The ΔTm at 100 µM was greater than 5 °C.

Q: With `COc1ncnc(C2CC2)c1-c1ncc2cc(C(=O)N[C@H](C)CCO)n(Cc3ccc(-c4nc(C(F)(F)F)cn4C(C)C)cc3)c2n1` [Example 83, (R)-2-(4-cyclopropyl-6-methoxypyrimidin-5-yl)-N-(4-hydroxybutan-2-yl)-7-(4-(1-isopropyl-4-(trifluoromethyl)-1H-imidazol-2-yl)benzyl)-7H-pyrrolo[2,3-d]pyrimidine-6-carboxamide] as the molecule, how does the GI50 (UWB1.289 cells) read?
A: Its GI50 is less than 0.1 µM.

Q: What about the ΔTm at 100 µM (recombinant USP1 protein) of the same molecule?
A: Its ΔTm at 100 µM is greater than 5 °C.

Q: For `COc1ncnc(C2CC2)c1-c1ncc2cc(C(=O)N[C@H](C)C(F)(F)F)n(Cc3ccc(-c4nc(C(F)(F)F)cn4C(C)C)cc3)c2n1` [Example 85, (R)-2-(4-cyclopropyl-6-methoxypyrimidin-5-yl)-7-(4-(1-isopropyl-4-(trifluoromethyl)-1H-imidazol-2-yl)benzyl)-N-(1,1,1-trifluoropropan-2-yl)-7H-pyrrolo[2,3-d]pyrimidine-6-carboxamide], which GI50 (UWB1.289 cells) is on record?
A: The GI50 was 0.1 to 0.5 µM.

Q: And the ΔTm at 100 µM (recombinant USP1 protein)?
A: The ΔTm at 100 µM was greater than 5 °C.

Q: What does the source list for `COc1ncnc(C2CC2)c1-c1ncc2cc(C(=O)N[C@@H](C)C(F)(F)F)n(Cc3ccc(-c4nc(C(F)(F)F)cn4C(C)C)cc3)c2n1` [Example 86, (S)-2-(4-cyclopropyl-6-methoxypyrimidin-5-yl)-7-(4-(1-isopropyl-4-(trifluoromethyl)-1H-imidazol-2-yl)benzyl)-N-(1,1,1-trifluoropropan-2-yl)-7H-pyrrolo[2,3-d]pyrimidine-6-carboxamide]?
A: GI50 (UWB1.289 cells): < 0.1 µM; ΔTm at 100 µM (recombinant USP1 protein): > 5 °C

Q: What does the source list for `COc1ncnc(C2CC2)c1-c1ncc2cc(C(=O)NCC3CCN(C)CC3)n(Cc3ccc(-c4nc(C(F)(F)F)cn4C(C)C)cc3)c2n1` [Example 87, 2-(4-cyclopropyl-6-methoxypyrimidin-5-yl)-7-(4-(1-isopropyl-4-(trifluoromethyl)-1H-imidazol-2-yl)benzyl)-N-((1-methylpiperidin-4-yl)methyl)-7H-pyrrolo[2,3-d]pyrimidine-6-carboxamide]?
A: GI50 (UWB1.289 cells): 0.1 to 0.5 µM; ΔTm at 100 µM (recombinant USP1 protein): > 5 °C

Q: Which GI50 (UWB1.289 cells) does the source give for `COc1ncnc(C2CC2)c1-c1ncc2cc(C(=O)NC34CC(F)(C3)C4)n(Cc3ccc(-c4nc(C(F)(F)F)cn4C(C)C)cc3)c2n1` [Example 89, 2-(4-cyclopropyl-6-methoxypyrimidin-5-yl)-N-(3-fluorobicyclo[1.1.1]pentan-1-yl)-7-(4-(1-isopropyl-4-(trifluoromethyl)-1H-imidazol-2-yl)benzyl)-7H-pyrrolo[2,3-d]pyrimidine-6-carboxamide] here?
A: Its GI50 is 0.1 to 0.5 µM.

Q: What about the ΔTm at 100 µM (recombinant USP1 protein) of the same molecule?
A: Its ΔTm at 100 µM is greater than 5 °C.
